Measurements as given in US20240400577A1, “MODULATORS OF PROTEIN KINASES” (VIBLIOME THERAPEUTICS, LLC, priority 2021, published 2024).

Tests used:
Experiment in all cases: Kinase panel enzymatic inhibition assay (Nanosyn)
Format in all cases: biochemical
Conditions in all cases: compound 5 μM; ATP at Km; 30-minute pre-incubation
PIKfyve = target: T1, PIKfyve (Homo sapiens, UniProt Q9Y2I7)
T1 construct: Nanosyn (contract laboratory that ran the panel)
Summary of the method: (§1)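 Inhibition is expressed as percent at 5 μM or as IC50, with ATP set at the Km of each kinase and a 30-minute compound pre-incubation. Detection used an accepted enzymatic format such as Caliper mobility shift.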

EPH = system: EPH
Summary of the method: as §1

PDGFRb = target: T2, PDGFRb (Homo sapiens, UniProt P09619)
T2 construct: Nanosyn (contract laboratory that ran the panel)
Summary of the method: as §1

FGR = target: T3, FGR (Homo sapiens, UniProt P09769)
T3 construct: purchased Nanosyn (contract screening)
T3 sequence (P09769 whole entry): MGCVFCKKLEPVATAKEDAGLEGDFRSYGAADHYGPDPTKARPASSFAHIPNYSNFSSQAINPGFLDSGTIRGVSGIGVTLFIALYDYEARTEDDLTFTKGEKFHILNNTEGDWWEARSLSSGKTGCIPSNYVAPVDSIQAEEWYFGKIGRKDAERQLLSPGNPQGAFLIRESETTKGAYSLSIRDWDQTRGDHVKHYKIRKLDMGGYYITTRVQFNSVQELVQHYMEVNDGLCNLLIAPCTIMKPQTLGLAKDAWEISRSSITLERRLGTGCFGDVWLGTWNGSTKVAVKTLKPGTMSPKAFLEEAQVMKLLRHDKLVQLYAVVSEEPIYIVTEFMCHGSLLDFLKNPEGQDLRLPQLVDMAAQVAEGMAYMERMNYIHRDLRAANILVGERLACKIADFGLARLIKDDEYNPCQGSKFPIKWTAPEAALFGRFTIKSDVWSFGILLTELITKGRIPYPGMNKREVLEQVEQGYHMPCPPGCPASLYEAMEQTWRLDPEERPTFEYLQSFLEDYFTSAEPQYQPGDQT
Summary of the method: as §1

Abl2 = target: T4, Abl2 (Homo sapiens, UniProt P42684)
T4 construct: purchased Nanosyn (contract screening)
Summary of the method: as §1

RET = target: T5, RET (Homo sapiens, UniProt P07949)
T5 construct: Nanosyn (contract laboratory that ran the panel)
T5 sequence (P07949 29-1114): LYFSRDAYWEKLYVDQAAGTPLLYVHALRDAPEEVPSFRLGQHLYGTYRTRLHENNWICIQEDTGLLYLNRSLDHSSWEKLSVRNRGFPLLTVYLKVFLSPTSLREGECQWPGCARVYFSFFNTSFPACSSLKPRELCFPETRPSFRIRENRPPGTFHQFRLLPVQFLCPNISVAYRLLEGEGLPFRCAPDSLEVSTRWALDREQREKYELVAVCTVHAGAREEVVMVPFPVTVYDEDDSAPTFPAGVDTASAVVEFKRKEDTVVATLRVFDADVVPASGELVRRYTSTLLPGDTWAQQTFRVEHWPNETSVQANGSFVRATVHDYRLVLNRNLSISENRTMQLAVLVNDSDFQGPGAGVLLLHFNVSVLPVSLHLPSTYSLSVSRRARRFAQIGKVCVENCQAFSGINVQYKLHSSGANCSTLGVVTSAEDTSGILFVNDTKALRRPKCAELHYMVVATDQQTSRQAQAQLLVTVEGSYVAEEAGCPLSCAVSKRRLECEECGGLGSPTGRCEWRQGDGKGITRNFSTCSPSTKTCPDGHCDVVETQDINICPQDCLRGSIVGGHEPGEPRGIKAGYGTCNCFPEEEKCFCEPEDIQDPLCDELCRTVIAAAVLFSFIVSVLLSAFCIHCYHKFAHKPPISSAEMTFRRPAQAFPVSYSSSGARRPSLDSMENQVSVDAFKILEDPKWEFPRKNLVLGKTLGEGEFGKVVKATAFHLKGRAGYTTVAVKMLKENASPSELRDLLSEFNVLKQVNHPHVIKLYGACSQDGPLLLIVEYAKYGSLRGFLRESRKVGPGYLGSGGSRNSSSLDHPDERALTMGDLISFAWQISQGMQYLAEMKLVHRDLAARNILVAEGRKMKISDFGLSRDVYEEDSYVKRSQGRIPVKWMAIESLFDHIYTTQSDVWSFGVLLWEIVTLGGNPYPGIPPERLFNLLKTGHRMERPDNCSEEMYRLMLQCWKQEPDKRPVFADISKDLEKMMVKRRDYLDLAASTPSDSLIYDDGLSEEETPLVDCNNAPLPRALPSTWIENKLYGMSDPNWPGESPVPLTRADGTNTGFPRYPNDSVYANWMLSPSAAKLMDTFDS
Summary of the method: as §1

DDR1 = target: T6, DDR1 (Homo sapiens, UniProt Q08345)
T6 construct: purchased Nanosyn (contract screening)
Summary of the method: as §1

p38a = target: T7, p38a (Homo sapiens, UniProt Q16539)
T7 construct: Nanosyn (contract laboratory that ran the panel)
Summary of the method: as §1

HCK = target: T8, HCK (Homo sapiens, UniProt P08631)
T8 construct: purchased Nanosyn (contract screening)
Summary of the method: as §1

SGK3 = target: T9, SGK3 (Homo sapiens, UniProt Q96BR1)
T9 construct: Nanosyn (contract laboratory that ran the panel)
T9 sequence (Q96BR1 1-496): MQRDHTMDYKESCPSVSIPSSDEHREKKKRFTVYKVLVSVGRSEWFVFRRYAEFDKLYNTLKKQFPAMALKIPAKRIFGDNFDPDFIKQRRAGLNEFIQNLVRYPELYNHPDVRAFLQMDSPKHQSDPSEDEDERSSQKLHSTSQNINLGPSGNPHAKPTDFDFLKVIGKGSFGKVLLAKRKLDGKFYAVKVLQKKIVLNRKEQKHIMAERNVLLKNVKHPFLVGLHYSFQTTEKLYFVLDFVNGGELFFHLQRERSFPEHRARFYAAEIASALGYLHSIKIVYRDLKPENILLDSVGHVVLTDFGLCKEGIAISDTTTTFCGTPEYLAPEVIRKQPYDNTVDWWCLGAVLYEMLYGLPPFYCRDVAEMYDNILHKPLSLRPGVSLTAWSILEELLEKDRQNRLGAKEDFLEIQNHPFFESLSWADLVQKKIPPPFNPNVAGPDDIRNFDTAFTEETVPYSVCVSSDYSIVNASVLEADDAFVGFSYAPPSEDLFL
Summary of the method: as §1

TNIK = target: T10, TNIK (Homo sapiens, UniProt Q9UKE5)
T10 construct: Nanosyn (contract laboratory that ran the panel)
Summary of the method: as §1

SPHK2 = target: T11, SPHK2 (Homo sapiens, UniProt Q9NRA0)
T11 construct: Nanosyn (contract laboratory that ran the panel)
T11 sequence (Q9NRA0 1-654): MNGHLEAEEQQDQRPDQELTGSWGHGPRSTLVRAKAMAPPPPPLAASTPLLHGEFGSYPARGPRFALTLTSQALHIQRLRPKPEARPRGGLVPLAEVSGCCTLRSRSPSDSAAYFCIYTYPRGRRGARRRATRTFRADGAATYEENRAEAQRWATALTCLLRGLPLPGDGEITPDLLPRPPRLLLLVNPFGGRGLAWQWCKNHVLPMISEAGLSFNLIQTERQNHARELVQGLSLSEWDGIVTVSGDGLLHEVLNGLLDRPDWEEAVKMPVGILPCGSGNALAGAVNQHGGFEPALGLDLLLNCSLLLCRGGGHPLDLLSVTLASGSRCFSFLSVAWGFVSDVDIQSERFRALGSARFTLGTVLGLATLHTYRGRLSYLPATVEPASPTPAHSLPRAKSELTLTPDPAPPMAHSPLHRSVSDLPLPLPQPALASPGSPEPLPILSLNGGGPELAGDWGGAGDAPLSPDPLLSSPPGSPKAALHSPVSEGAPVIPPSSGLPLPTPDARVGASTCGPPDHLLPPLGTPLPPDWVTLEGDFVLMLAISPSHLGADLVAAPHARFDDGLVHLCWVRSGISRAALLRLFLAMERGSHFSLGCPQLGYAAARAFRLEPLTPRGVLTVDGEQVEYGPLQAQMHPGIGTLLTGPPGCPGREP
Summary of the method: as §1

FYN = target: T12, FYN (Homo sapiens, UniProt P06241)
T12 construct: purchased Nanosyn (contract screening)
Summary of the method: as §1

BRK = target: T13, BRK (Homo sapiens, UniProt Q13882)
T13 construct: purchased Nanosyn (contract screening)
Summary of the method: as §1

SGK2 = target: T14, SGK2 (Homo sapiens, UniProt Q9HBY8)
T14 construct: Nanosyn (contract laboratory that ran the panel)
T14 sequence (Q9HBY8 1-367): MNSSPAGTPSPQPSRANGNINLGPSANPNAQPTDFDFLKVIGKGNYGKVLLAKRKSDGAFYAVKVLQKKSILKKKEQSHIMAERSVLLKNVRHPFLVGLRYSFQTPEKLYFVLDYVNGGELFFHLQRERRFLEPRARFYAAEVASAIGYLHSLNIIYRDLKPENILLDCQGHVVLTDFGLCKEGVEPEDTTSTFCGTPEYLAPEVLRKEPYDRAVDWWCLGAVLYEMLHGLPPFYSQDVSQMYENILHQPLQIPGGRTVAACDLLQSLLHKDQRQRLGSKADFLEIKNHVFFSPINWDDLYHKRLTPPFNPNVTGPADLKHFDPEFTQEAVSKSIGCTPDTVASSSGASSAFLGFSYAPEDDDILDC
Summary of the method: as §1

PKCb1 = target: T15, PKCb1 (Homo sapiens, UniProt P05771)
T15 construct: Nanosyn (contract laboratory that ran the panel)
T15 sequence (P05771 whole entry): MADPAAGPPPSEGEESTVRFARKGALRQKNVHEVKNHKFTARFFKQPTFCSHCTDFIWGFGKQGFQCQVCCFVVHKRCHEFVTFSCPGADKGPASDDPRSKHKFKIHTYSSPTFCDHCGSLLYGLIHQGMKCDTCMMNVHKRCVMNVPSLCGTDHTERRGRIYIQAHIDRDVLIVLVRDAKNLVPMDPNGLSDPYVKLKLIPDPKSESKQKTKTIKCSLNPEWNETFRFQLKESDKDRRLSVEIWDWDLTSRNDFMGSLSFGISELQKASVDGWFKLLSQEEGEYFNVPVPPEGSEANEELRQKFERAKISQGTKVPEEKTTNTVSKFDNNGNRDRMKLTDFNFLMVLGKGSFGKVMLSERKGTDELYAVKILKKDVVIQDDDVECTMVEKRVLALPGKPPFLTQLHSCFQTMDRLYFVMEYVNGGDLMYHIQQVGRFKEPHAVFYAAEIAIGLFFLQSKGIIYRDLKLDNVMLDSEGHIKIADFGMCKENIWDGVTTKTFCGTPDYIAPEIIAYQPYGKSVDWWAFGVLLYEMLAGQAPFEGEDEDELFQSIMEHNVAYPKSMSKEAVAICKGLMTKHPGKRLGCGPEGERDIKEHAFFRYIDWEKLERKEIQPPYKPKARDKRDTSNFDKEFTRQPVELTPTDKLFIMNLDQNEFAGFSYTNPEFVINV
Summary of the method: as §1

SRC = target: T16, SRC (Homo sapiens, UniProt P12931)
T16 construct: Nanosyn (contract laboratory that ran the panel)
T16 sequence (P12931 whole entry): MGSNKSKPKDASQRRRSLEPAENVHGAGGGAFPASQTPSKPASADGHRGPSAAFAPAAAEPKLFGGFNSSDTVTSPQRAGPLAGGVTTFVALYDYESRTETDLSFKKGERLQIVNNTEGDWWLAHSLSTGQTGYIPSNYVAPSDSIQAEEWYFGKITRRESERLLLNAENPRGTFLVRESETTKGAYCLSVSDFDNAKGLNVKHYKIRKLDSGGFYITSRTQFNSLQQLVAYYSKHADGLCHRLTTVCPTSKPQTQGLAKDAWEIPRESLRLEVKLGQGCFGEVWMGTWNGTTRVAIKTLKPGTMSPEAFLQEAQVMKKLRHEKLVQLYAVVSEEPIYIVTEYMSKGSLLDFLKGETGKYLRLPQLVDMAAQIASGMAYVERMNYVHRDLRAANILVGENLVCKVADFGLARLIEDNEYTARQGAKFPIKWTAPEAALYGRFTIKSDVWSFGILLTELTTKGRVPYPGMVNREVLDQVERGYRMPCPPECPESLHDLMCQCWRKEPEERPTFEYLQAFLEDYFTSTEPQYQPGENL
Summary of the method: as §1

LYNa = target: T17, LYNa (Homo sapiens, UniProt P07948)
T17 construct: purchased Nanosyn (contract screening)
Summary of the method: as §1

T1 sequence (Q9Y2I7 whole entry): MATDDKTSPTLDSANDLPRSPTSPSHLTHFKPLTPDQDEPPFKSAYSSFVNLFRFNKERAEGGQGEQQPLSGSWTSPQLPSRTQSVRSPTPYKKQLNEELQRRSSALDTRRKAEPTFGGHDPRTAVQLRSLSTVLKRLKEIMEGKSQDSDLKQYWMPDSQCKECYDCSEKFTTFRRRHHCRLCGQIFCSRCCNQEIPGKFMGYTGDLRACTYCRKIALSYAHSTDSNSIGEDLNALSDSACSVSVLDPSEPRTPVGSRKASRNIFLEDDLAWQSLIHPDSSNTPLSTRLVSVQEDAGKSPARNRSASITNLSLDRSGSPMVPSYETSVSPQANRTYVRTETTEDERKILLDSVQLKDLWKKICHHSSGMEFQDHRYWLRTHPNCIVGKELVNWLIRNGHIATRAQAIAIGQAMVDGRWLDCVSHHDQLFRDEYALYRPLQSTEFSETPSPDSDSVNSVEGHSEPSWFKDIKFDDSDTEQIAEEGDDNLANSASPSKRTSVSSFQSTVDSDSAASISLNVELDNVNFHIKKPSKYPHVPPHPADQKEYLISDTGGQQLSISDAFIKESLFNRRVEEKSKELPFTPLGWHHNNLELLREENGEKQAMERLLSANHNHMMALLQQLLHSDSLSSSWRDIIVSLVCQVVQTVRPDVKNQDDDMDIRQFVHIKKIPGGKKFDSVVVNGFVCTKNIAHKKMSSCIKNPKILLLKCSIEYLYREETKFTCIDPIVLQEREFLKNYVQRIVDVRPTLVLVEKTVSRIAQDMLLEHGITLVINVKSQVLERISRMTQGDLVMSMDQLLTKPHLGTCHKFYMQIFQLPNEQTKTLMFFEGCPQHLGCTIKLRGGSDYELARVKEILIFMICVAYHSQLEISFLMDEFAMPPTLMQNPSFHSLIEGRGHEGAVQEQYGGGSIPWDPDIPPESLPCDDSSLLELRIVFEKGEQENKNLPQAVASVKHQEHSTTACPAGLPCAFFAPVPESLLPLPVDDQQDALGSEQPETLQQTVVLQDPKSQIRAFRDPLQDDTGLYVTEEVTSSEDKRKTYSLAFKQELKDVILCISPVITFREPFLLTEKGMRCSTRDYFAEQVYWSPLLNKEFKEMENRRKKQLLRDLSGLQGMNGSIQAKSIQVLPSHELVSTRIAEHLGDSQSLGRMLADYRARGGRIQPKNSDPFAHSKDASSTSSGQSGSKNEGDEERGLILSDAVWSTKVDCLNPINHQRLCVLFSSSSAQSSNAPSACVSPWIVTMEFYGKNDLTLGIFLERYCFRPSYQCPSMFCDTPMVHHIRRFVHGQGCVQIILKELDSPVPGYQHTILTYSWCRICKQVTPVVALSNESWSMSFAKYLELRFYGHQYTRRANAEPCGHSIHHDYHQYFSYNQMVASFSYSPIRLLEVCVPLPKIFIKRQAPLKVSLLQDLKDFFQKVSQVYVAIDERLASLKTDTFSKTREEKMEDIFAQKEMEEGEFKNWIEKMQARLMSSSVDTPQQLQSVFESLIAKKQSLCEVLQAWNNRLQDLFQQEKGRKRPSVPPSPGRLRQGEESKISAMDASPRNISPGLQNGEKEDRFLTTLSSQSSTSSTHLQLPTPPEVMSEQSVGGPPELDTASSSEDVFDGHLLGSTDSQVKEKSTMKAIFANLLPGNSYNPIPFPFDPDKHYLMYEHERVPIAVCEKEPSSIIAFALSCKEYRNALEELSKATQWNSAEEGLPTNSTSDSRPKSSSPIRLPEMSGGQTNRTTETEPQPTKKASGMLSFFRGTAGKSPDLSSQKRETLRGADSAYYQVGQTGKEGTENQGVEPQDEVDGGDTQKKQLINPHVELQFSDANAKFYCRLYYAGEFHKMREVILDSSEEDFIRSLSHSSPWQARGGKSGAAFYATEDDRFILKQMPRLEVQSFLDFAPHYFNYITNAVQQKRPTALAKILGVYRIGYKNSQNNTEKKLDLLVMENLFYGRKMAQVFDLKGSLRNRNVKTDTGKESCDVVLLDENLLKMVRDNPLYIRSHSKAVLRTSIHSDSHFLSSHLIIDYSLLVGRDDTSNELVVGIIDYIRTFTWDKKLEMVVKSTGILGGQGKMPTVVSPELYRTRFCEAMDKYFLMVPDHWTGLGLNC

inhibition at 5 µM (PIKfyve): < 79% | kinase inhibition, EPH (EPH): D (D=79% and less) | inhibition at 5 µM (PDGFRb): 90 to 94% | inhibition at 5 µM (FGR): 80 to 89% | inhibition at 5 µM (Abl2): 80 to 89% | inhibition at 5 µM (RET): 80 to 89% | inhibition at 5 µM (DDR1): ≥ 95% | inhibition at 5 µM (p38a): ≥ 95% | inhibition at 5 µM (HCK): ≥ 95% | inhibition at 5 µM (SGK3): < 79% | inhibition at 5 µM (TNIK): < 79% | inhibition at 5 µM (SPHK2): 80 to 89% | inhibition at 5 µM (FYN): ≥ 95% | inhibition at 5 µM (BRK): < 79% | inhibition at 5 µM (SGK2): < 79% | inhibition at 5 µM (PKCb1): < 79% | inhibition at 5 µM (SRC): 80 to 89% | inhibition at 5 µM (LYNa): ≥ 95%
Structure (SMILES): CCOC(=O)Nc1cn2nc(Nc3cc(NC(=O)c4cc([S+](C)[O-])n(-c5ccc(F)cc5)n4)ccc3C)ccc2n1 (stereo not drawn) [Ex18, ethyl (6-((5-(1-(4-fluorophenyl)-5-(methylsulfinyl)-1H-pyrazole-3-carboxamido)-2-methylphenyl)amino)imidazo[1,2-b]pyridazin-2-yl)carbamate]
